Residues, ends and D or L forms follow the SMILES beside them.

In the assay the target is h-mT1R2-481/T1R3mosaicC (UniProt Q8TE23+Q925D8, A537S/A558R/A564V/A568V/A570T/A588V/A645S/A649T/A658V/A698V/A702T/A782V/A793V/A807V/C582S/C678S/D172E/D176A/D217E/E221Q/E530V/E534N/E542M/E548N/E725V/F525Y/F541I/F612A/F622V/F665L/F695L/G696N/G701T/H484Y/H528R/H728R/I481V/I486P/I490V/I510L/I518V/I595M/I617V/I643V/I645L/I692L/I695G/I706V/I740A/I803L/K504M/K555R/K565R/K626T/K714N/K818R/K827G/L521P/L560F/L571I/L578I/L610P/L631F/L636F/L639V/L684P/L688V/L702I/L734M/L735F/L800F/L823M/L825Q/M492I/M616G/M644L/M682V/M690V/M744T/M748V/N203E/N231A/N540G/N541S/N547G/N675D/N721H/P545F/P561R/P564S/P638T/P824S/Q195T/Q536L/Q546K/Q550E/Q555R/Q611L/Q676H/Q757R/Q795R/Q831P/R173L/R498S/R632Q/R667S/S168G/S205G/S228A/S501P/S547N/S550A/S576L/S595F/S610P/S628F/S635P/S637R/S663R/S670G/S679G/S681F/S703N/S717H/S727G/S784D/S804G/T199E/T529S/T542A/T549I/T609V/T629S/T642S/T663I/T694M/T705I/T706G/T716I/T813A/V197A/V198A/V508I/V512P/V557A/V573A/V584A/V585L/V613L/V617M/V673M/V687A/V691A/V694A/V718L/V718M/V723A/V729T/V738A/V741L/V774I/V791M/V805L/V812A/V821L/W599R/W676R/W824R/Y533F/Y615F/Y671F/Y680C/Y769S/Y783H/Y794L). The settings on record: Table 6; genes h-mT481/T1R3mC (h-mT1R2-481, T1R3mC); HEK293E cells.
Sequence of h-mT1R2-481/T1R3mosaicC (Q8TE23 with tags, fused parts or gaps with the stated changes limits assumed): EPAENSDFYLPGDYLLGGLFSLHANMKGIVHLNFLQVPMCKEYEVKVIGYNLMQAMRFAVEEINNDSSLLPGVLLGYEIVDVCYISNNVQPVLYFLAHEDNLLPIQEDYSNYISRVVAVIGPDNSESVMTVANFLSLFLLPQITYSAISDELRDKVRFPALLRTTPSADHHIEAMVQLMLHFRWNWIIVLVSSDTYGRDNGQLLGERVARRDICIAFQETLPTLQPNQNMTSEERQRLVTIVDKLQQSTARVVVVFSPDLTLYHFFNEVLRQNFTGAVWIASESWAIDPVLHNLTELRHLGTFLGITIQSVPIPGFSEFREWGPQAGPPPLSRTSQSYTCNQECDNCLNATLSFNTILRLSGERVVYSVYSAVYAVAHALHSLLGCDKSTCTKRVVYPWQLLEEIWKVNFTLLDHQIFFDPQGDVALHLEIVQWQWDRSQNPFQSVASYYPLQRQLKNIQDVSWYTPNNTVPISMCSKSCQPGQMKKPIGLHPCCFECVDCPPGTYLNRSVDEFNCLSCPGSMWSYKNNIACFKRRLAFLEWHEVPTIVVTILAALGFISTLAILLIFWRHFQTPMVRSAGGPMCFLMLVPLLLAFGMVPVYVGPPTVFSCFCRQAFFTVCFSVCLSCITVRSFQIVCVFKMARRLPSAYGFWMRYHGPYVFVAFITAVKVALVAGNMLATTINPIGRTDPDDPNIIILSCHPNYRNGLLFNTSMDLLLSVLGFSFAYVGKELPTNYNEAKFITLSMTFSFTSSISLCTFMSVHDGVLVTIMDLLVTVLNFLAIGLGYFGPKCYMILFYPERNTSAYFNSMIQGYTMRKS
Sequence of h-mT1R2-481/T1R3mosaicC (Q925D8 with tags, fused parts or gaps with the stated changes limits assumed): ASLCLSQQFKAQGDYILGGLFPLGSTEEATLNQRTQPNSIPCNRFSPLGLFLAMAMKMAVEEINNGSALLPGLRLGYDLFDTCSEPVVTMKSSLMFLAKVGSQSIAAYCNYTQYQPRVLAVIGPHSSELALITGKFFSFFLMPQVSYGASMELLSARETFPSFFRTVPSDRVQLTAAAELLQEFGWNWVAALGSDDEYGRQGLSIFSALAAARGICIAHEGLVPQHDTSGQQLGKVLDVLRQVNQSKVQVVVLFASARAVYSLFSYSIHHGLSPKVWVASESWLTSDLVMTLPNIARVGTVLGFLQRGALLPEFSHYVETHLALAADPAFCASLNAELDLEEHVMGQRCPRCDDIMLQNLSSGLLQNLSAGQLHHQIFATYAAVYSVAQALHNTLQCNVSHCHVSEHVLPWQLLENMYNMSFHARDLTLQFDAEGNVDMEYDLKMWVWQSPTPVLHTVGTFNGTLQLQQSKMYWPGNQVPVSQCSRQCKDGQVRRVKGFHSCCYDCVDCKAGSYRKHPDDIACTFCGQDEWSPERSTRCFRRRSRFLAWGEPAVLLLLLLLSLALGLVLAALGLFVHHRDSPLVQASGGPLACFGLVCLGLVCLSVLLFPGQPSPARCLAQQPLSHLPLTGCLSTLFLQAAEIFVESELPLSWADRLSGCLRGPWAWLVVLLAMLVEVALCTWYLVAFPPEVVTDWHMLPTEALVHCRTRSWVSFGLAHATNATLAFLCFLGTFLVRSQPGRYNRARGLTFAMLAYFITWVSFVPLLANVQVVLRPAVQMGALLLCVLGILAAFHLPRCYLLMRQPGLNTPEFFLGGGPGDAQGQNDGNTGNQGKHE
In the case of `CC1=CC(=O)NS(=O)(=O)O1` [Acesulfame K, acesulfame potassium], the S/N is recorded as 3.2. For the compound `COC(=O)[C@H](Cc1ccccc1)NC(=O)[C@H](CC(=O)O)NCCCc1ccc(OC)c(O)c1` [Advantame, advantame], the S/N is on record as 9.9. The same measure for `COC(=O)[C@H](Cc1ccccc1)NC(=O)[C@@H](N)CC(=O)O` [Aspartame, aspartame] (HELM PEPTIDE1{D.F.[CO[*:1]]}$$$$V2.0): 6.3.

With `COc1ccc(CCC(=O)c2c(O)cc(O[C@@H]3O[C@H](CO)[C@@H](O)[C@H](O)[C@H]3O[C@@H]3O[C@@H](C)[C@H](O)[C@@H](O)[C@H]3O)cc2O)cc1O` [NHDC, neohesperidin dihydrochalcone], the S/N was 3.9. For the compound `COC(=O)[C@H](Cc1ccccc1)NC(=O)[C@H](CC(=O)O)NCCC(C)(C)C` [Neotame, neotame], the S/N was determined as 8.4. Take `C[C@H](NC(=Nc1ccc(C#N)cc1)NCC(=O)O)c1ccccc1` [SC-45647, [3-[(S)-1-phenylethyl]-2-(4-cyanophenyl)guanidino]acetic acid]: the S/N came to 6.1. Compound `O=C1NS(=O)(=O)c2ccccc21.[Na]` [Saccharin Na, sodium saccharin] displayed a S/N of 4.5. The same measure for `OC[C@H]1O[C@H](O[C@]2(CCl)O[C@H](CCl)[C@@H](O)[C@@H]2O)[C@H](O)[C@@H](O)[C@H]1Cl` [Sucralose, sucralose]: 4.8. The same measure for `OC[C@H]1O[C@@](CO)(O[C@H]2O[C@H](CO)[C@@H](O)[C@H](O)[C@H]2O)[C@@H](O)[C@@H]1O` [Sucrose, sucrose]: 3.4.

These data come from patent US9341616B2, “Sweet taste receptor chimeric proteins and use thereof” (AJINOMOTO CO., INC., priority 2014, dated 2016).
